Assay results: patent publication US6991902B2, “Nucleobase heterocyclic combinatorialization” (ISIS Pharmaceuticals, Inc., priority 1997, dated 2006)

Key:
Details in all cases: deblocked single compounds
[1] = tested on: Entercoccus hirae; test: Antimicrobial assay (MIC), Entercoccus hirae; assay type: cell-based
[2] = tested on: E. coli imp-; test: Antimicrobial assay (MIC), E. coli imp-; assay type: cell-based, Escherichia coli
Description: In this assay, the strain E. coli imp- obtained from Spenser Bensen (Sampson., B. A., Misra, R. & Benson, S. A. (1989), Genetics, 122, 491-501, Identification and characterization of a new gene of Escherichia coli K-12 involved in outer membrane permeability) is used. To initiate the exponential phase of bacterial growth prior to the assay, a sample of bacteria is grown overnight at 37° C. in Luria broth. This bacteria is then used to reinoculate sample wells of 96-well microtiter plates. The assays are carried out in the 96-well microtiter plates in 150 μL volume with approximately 1×10^6 cells per well.
Bacteria in Luria broth (75 μL) is added to the compound mixtures in solution in 75 μL water in the individual well of the microtiter plate. Final concentrations of the compound mixtures are 25 μM, 10 μM and 1 μM. Each concentration of the compound mixtures are assayed in triplicate. The plates are incubated at 37° C. and growth monitored over a 24 hour period by measuring the optical density at 595 nm using a BioRad model 3550 UV microplate reader. The percentage of growth relative to a well containing no compound is determined. […]
Libraries in accordance with the present invention have been tested for antibacterial activity utilizing assays that determine the minimum inhibitory concentration (MIC). […] Activity has been detected in a number of libraries of the present invention.

[3] = tested on: Streptococcus pyogenes; test: Antimicrobial assay (MIC), Streptococcus pyogenes; assay type: cell-based
[4] = tested on: Klebsiella pneumoniae; test: Antimicrobial assay (MIC), Klebsiella pneumoniae; assay type: cell-based
[5] = tested on: Escherichia coli; test: Antimicrobial assay (MIC), Escherichia coli; assay type: cell-based
[6] = tested on: Staphylococcus aureus; test: Antimicrobial assay (MIC), Staphylococcus aureus; assay type: cell-based
Description: In this assay, the strain S. aureus ATCC 25923 (American Type Culture Collection) is used in the bioassay. To initiate the exponential phase of bacterial growth prior to the assay, a sample of bacteria is grown overnight at 37° C. in typtocase soy broth (BBL). This bacteria is then used to reinoculate sample wells of 96-well microtiter plates. The assays are carried out in the 96-well microtiter plates in 150 μL volume with approximately 1×10^6 cells per well.
Bacteria in typtocase soy broth (75 μL) is added to the compound mixtures in solution in 75 μL water/4% DMSO in the individual well of the microtiter plate. Final concentrations of the compound mixtures are 25 μM, 10 μM and 1 μM. Each concentration of the compound mixtures are assayed in triplicate. The plates are incubated at 37° C. and growth monitored over a 24 hour period by measuring the optical density at 595 nm using a BioRad model 3550 UV microplate reader. The percentage of growth relative to a well containing no compound is determined. Ampicillin and tetracycline antibiotic positive controls are concurrently tested in each screening assay.

Substance	minimum inhibitory activity, Entercoccus hirae [1]	minimum inhibitory activity, E. coli. imp- [2]	minimum inhibitory activity, Streptococcus pyogenes [3]	minimum inhibitory activity, Klebsiella pneumoniae [4]	minimum inhibitory activity, Escherichia coli [5]	minimum inhibitory activity, Staphylococcus aureus [6]
6-[(2-aminobenzothiazole acetyl)piperazinyl]-2-[(N-m-triflouromethylbenzyl)piper-azinyl]-N9-[(N′-t-Boc-N″-acetyl)piperazinyl]purine [Compound 50]	3 µM	3 µM	3 to 6 µM	3 to 6 µM	>100 µM	3 to 6 µM
6-[(2-Aminobenzothiazole acetyl)piperazinyl]-2-[(m-chlorobenzyl)-piperazinyl]-N9-[(N′-t-Boc-N″-acetyl)piperazinyl]purine [Compound 46]	3 to 6 µM	3 to 6 µM	3 to 6 µM	3 to 6 µM	50 to 100 µM	3 to 6 µM
